Data reported in PubChem BioAssay (NCI).
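The compound was tested at five concentrations on cells cultured in 96-well plates, with a 48-hour exposure period. GI50: concentration for 50% inhibition of growth. The concentration for full growth arrest is given as TGI.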

Key:
Assay in all cases: NCI anticancer screen, dose series, 48 h
HOP-62 NSCLC = test system: HOP-62 NSCLC
M14 melanoma = test system: M14 melanoma
SR leukemia = test system: SR leukemia
RPMI-8226 leukemia = test system: RPMI-8226 leukemia
UACC-62 melanoma = test system: UACC-62 melanoma
SK-MEL-28 melanoma = test system: SK-MEL-28 melanoma
HCT-116 colon = test system: HCT-116 colon
T-47D breast = test system: T-47D breast
MCF7 breast = test system: MCF7 breast
K-562 leukemia = test system: K-562 leukemia
NCI-H522 lung = test system: NCI-H522 lung
ACHN renal = test system: ACHN renal
SF-295 CNS = test system: SF-295 CNS
MDA-MB-231 breast = test system: MDA-MB-231 breast
U251 CNS = test system: U251 CNS
IGROV1 ovarian = test system: IGROV1 ovarian
SK-MEL-5 melanoma = test system: SK-MEL-5 melanoma
SN12C renal = test system: SN12C renal
DU-145 prostate = test system: DU-145 prostate
SW-620 colon = test system: SW-620 colon
MALME-3M melanoma = test system: MALME-3M melanoma
MOLT-4 leukemia = test system: MOLT-4 leukemia
OVCAR-8 ovarian = test system: OVCAR-8 ovarian
NCI-H23 lung = test system: NCI-H23 lung
SK-OV-3 ovarian = test system: SK-OV-3 ovarian
HOP-92 NSCLC = test system: HOP-92 NSCLC
HL-60(TB) leukemia = test system: HL-60(TB) leukemia
TK-10 renal = test system: TK-10 renal
RXF 393 renal = test system: RXF 393 renal

COc1cc(/C=C/C(=O)c2cnn(-c3cc(=O)[nH]c4ccc(C)cc34)c2C)cc(OC)c1OC
GI50 (HOP-62 NSCLC): 3.56 µM | TGI (HOP-62 NSCLC): 12.5 µM | GI50 (M14 melanoma): 3.16 µM | TGI (M14 melanoma): 13.2 µM | GI50 (SR leukemia): 1.76 µM | TGI (SR leukemia): 11.3 µM | GI50 (RPMI-8226 leukemia): 2.02 µM | TGI (RPMI-8226 leukemia): 7.59 µM | GI50 (UACC-62 melanoma): 2.85 µM | TGI (UACC-62 melanoma): 10.9 µM | GI50 (SK-MEL-28 melanoma): 3.7 µM | TGI (SK-MEL-28 melanoma): 13.2 µM | GI50 (HCT-116 colon): 3.63 µM | TGI (HCT-116 colon): 12.9 µM | GI50 (T-47D breast): 2.57 µM | TGI (T-47D breast): 16.2 µM | GI50 (MCF7 breast): 2.7 µM | TGI (MCF7 breast): 11.4 µM | GI50 (K-562 leukemia): 2.24 µM | TGI (K-562 leukemia): > 100 µM | GI50 (NCI-H522 lung): 2.65 µM | TGI (NCI-H522 lung): 8.02 µM | GI50 (ACHN renal): 1.72 µM | TGI (ACHN renal): 3.79 µM | GI50 (SF-295 CNS): 3 µM | TGI (SF-295 CNS): 11.1 µM | GI50 (MDA-MB-231 breast): 3.1 µM | TGI (MDA-MB-231 breast): 11.9 µM | GI50 (U251 CNS): 2.42 µM | TGI (U251 CNS): 8.48 µM | GI50 (IGROV1 ovarian): 2.41 µM | TGI (IGROV1 ovarian): 7.14 µM | GI50 (SK-MEL-5 melanoma): 2.39 µM | TGI (SK-MEL-5 melanoma): 7.34 µM | GI50 (SN12C renal): 2.57 µM | TGI (SN12C renal): 10.2 µM | GI50 (DU-145 prostate): 3.39 µM | TGI (DU-145 prostate): 12.6 µM | GI50 (SW-620 colon): 3.06 µM | TGI (SW-620 colon): 10.5 µM | GI50 (MALME-3M melanoma): 3.89 µM | TGI (MALME-3M melanoma): 16.7 µM | GI50 (MOLT-4 leukemia): 2.53 µM | TGI (MOLT-4 leukemia): 10.4 µM | GI50 (OVCAR-8 ovarian): 2 µM | TGI (OVCAR-8 ovarian): 4.63 µM | GI50 (NCI-H23 lung): 1.89 µM | TGI (NCI-H23 lung): 4.3 µM | GI50 (SK-OV-3 ovarian): 3.91 µM | TGI (SK-OV-3 ovarian): 13.4 µM | GI50 (HOP-92 NSCLC): 4.34 µM | TGI (HOP-92 NSCLC): 23.4 µM | GI50 (HL-60(TB) leukemia): 2.29 µM | TGI (HL-60(TB) leukemia): 11.3 µM | GI50 (TK-10 renal): 3.54 µM | TGI (TK-10 renal): 11.5 µM | GI50 (RXF 393 renal): 2.09 µM
